5 molecules from patent US20060142384A1, “2-Oxyamino-1-cyclopentene-1-nitriles as material protective agents” (priority 2002, published 2006) can be followed below.

Format in all cases: cell-based
For assay [1], the system named is Bacillus subtilis. The assay can be described thus: MIC on Landy agar against bacteria. As to conditions: 72 h, 3 days at 28° C., 60-70% relative atmospheric humidity, read-out: Minimum inhibitory concentrations Bacillus subtilis. As for the experimental part: (§1) A defined Landy Agar was admixed with the active compounds according to the invention in concentrations of […]. The MIC was determined after 3 days of storage at 28° C. and 60-70% relative atmospheric humidity.

Assay [2] concerns Pseudomonas aeroginosa. The assay can be described thus: MIC on Landy agar against bacteria. The conditions noted are these: 72 h, 3 days at 28° C., 60-70% relative atmospheric humidity, read-out: Minimum inhibitory concentrations Pseudomonas aeroginosa. The procedure: as §1
The subject of assay [3] is Penicillium brevicaule. The assay can be described thus: MIC on malt extract agar against fungi. The conditions noted are these: 336 h, 2 weeks at 28° C., 60 to 70% relative atmospheric humidity, read-out: Minimum inhibitory concentrations Penicillium brevicaule. As for the experimental part: (§2) The MIC was determined after 2 weeks of storage at 28° C. and 60 to 70% relative atmospheric humidity.

For assay [4], the system named is Chaetomium globosum. The experiment in a line: MIC on malt extract agar against fungi. As to conditions: 336 h, 2 weeks at 28° C., 60 to 70% relative atmospheric humidity, read-out: Minimum inhibitory concentrations Chaetomium globosum. The procedure:
as §2

As for `CC(C)C(=O)ON(C(=O)C(C)C)C1=C(C#N)CCC1` [Example 4, N-(2-Cyano-1-cyclopenten-1-yl)-N-(isobutyryloxy)-2-methylpropanamide], the MIC in assay [1], in assay [2], in assay [3] and in assay [4] was < 400 µg/mL throughout.
Consider `N#CC1=C(NO)CCC1` [Example 1, 2-(Hydroxyamino)-1-cyclopentene-1-carbonitrile], for which the MIC in assay [1] and in assay [2] was < 400 µg/mL in each case.
With `N#CC1=C(NOCc2ccc(Cl)cc2)CCC1` [Example 14], the MIC in assay [3] and in assay [4] was < 400 µg/mL in each case.
Consider `Cc1ccc(CONC2=C(C#N)CCC2)cc1` [Example 12], for which the MIC in assay [3] and in assay [4] was < 400 µg/mL each time.
In the case of `N#CC1=C(NOCc2ccccc2)CCC1` [Example 3, 2-[(Benzyloxy)amino]-1-cyclopentene-1-carbonitrile], the MIC in assay [3] and in assay [4] was < 400 µg/mL throughout.
